Assay results reported in patent US20170190671A1, “BIS(ARYL)CATECHOL DERIVATIVES AS HERBICIDES” (E I DU PONT DE NEMOURS AND COMPANY, priority 2014, published 2017).

Legend:
[1] = system: morningglory (Ipomoea coccinea); test: Test C postemergence; type: in vivo; details: Ipomoea, post-emergence, 336 h, Postemergence, scale 0 to 100, read-out: Plant response rating, Morningglory
kochia (Kochia scoparia) = test: Test C postemergence; type: in vivo; details: Bassia scoparia, post-emergence, Postemergence, scale 0 to 100, read-out: Plant response rating, Kochia
[2] = system: winter wheat (Triticum aestivum); test: Test C postemergence; type: in vivo; details: Triticum aestivum, post-emergence, 336 h, Postemergence, scale 0 to 100, read-out: Plant response rating, Wheat
[3] = system: large (Lg) crabgrass (Digitaria sanguinalis); test: Test C postemergence; type: in vivo; details: Digitaria sanguinalis, post-emergence, 336 h, Postemergence, scale 0 to 100, read-out: Plant response rating, Crabgrass, Large
[4] = system: velvetleaf (Abutilon theophrasti); test: Test C postemergence; type: in vivo; details: Abutilon theophrasti, post-emergence, Postemergence, scale 0 to 100, read-out: Plant response rating, Velvetleaf
[5] = system: galium (catchweed bedstraw, Galium aparine); test: Test C postemergence; type: in vivo; details: Galium, post-emergence, 336 h, Postemergence, scale 0 to 100, read-out: Plant response rating, Galium
[6] = system: morningglory (Ipomoea coccinea); test: Test C preemergence; type: in vivo; details: Ipomoea, pre-emergence, 336 h, preemergence, scale 0 to 100, read-out: Plant response rating, Morningglory
Procedure, shortened: (§1)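 0-100 visual injury score (100 = complete control), assessed at 13-15 d after treatment against controls; surfactant-containing solvent formulation applied preemergence to seeded loam-sand soil or sprayed onto 1- to 4-leaf greenhouse plants.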

[7] = system: ragweed (common ragweed, Ambrosia elatior); test: Test C preemergence; type: in vivo; details: Ambrosia artemisiifolia, pre-emergence, 336 h, preemergence, scale 0 to 100, read-out: Plant response rating, Ragweed
Procedure, shortened: as §1

[8] = system: giant foxtail (Setaria faberii); test: Test C preemergence; type: in vivo; details: Setaria faberi, pre-emergence, 336 h, preemergence, scale 0 to 100, read-out: Plant response rating, Foxtail, Giant
Procedure, shortened: as §1

[9] = system: winter wheat (Triticum aestivum); test: Test C preemergence; type: in vivo; details: Triticum aestivum, pre-emergence, 336 h, preemergence, scale 0 to 100, read-out: Plant response rating, Wheat
Procedure, shortened: as §1

corn (Zea mays) = test: Test C preemergence; type: in vivo; details: Zea mays, pre-emergence, 336 h, preemergence, scale 0 to 100
Procedure, shortened: as §1

[10] = system: barnyardgrass (Echinochloa crus-galli); test: Test C preemergence; type: in vivo; details: Echinochloa crus-galli, pre-emergence, preemergence, scale 0 to 100, read-out: Plant response rating, Barnyardgrass
Procedure, shortened: as §1

[11] = system: large (Lg) crabgrass (Digitaria sanguinalis); test: Test C preemergence; type: in vivo; details: Digitaria sanguinalis, pre-emergence, 336 h, preemergence, scale 0 to 100, read-out: Plant response rating, Crabgrass, Large
Procedure, shortened: as §1

[12] = system: johnsongrass (Sorghum halepense); test: Test C preemergence; type: in vivo; details: Sorghum halepense, pre-emergence, 336 h, preemergence, scale 0 to 100, read-out: Plant response rating, Johnsongrass
Procedure, shortened: as §1

[13] = system: pigweed (Amaranthus retroflexus); test: Test C preemergence; type: in vivo; details: Amaranthus retroflexus, pre-emergence, 336 h, preemergence, scale 0 to 100, read-out: Plant response rating, Pigweed
Procedure, shortened: as §1

[14] = system: velvetleaf (Abutilon theophrasti); test: Test C preemergence; type: in vivo; details: Abutilon theophrasti, pre-emergence, preemergence, scale 0 to 100, read-out: Plant response rating, Velvetleaf
Procedure, shortened: as §1

[15] = system: lambsquarters (Chenopodium album); test: Test C preemergence; type: in vivo; details: Chenopodium album, pre-emergence, 336 h, preemergence, scale 0 to 100, read-out: Plant response rating, Lambsquarters
Procedure, shortened: as §1

[16] = system: galium (catchweed bedstraw, Galium aparine); test: Test C preemergence; type: in vivo; details: Galium, pre-emergence, 336 h, preemergence, scale 0 to 100, read-out: Plant response rating, Galium
Procedure, shortened: as §1

[17] = system: yellow nutsedge (Cyperus esculentus); test: Test C preemergence; type: in vivo; details: Cyperus, pre-emergence, 336 h, preemergence, scale 0 to 100, read-out: Plant response rating, Nutsedge, Yellow
Procedure, shortened: as §1

[18] = system: blackgrass (Alopecurus myosuroides); test: Test C preemergence; type: in vivo; details: Alopecurus myosuroides, pre-emergence, 336 h, preemergence, scale 0 to 100, read-out: Plant response rating, Blackgrass
Procedure, shortened: as §1

[19] = system: oilseed rape (Brassica napus); test: Test C preemergence; type: in vivo; details: Brassica napus, pre-emergence, preemergence, scale 0 to 100, read-out: Plant response rating, Oilseed Rape
Procedure, shortened: as §1

soybean (Glycine max) = test: Test C preemergence; type: in vivo; details: Glycine max, pre-emergence, preemergence, scale 0 to 100, read-out: Plant response rating, Soybean
Procedure, shortened: as §1

For Fc1cnc(Oc2c(Br)cccc2Oc2ncc(Cl)cn2)nc1 [Compound 22], the pest or weed control at 31 g/ha ([1]; 31 g ai/ha) was 80%, the pest or weed control at 62 g/ha ([1]; 62 g ai/ha) was 70% and the pest or weed control at 125 g/ha ([1]; 125 g ai/ha) was 85%. It also gave a pest or weed control at 250 g/ha ([1]; 250 g ai/ha) of 80%, a pest or weed control at 31 g/ha (kochia (Kochia scoparia); 31 g ai/ha) of 45% and a pest or weed control at 62 g/ha (kochia (Kochia scoparia); 62 g ai/ha) of 60%. The pest or weed control at 125 g/ha (kochia (Kochia scoparia); 125 g ai/ha) was 85%, the pest or weed control at 250 g/ha (kochia (Kochia scoparia); 250 g ai/ha) was 90% and the plant injury at 31 g/ha ([2]; 31 g ai/ha) was 0%. It also gave a plant injury at 62 g/ha ([2]; 62 g ai/ha) of 0%, a plant injury at 125 g/ha ([2]; 125 g ai/ha) of 0% and a plant injury at 250 g/ha ([2]; 250 g ai/ha) of 0%. For the same compound, the pest or weed control at 31 g/ha ([3]; 31 g ai/ha) was 5%, the pest or weed control at 62 g/ha ([3]; 62 g ai/ha) was 15% and the pest or weed control at 125 g/ha ([3]; 125 g ai/ha) was 25%. It also gave a pest or weed control at 250 g/ha ([3]; 250 g ai/ha) of 20%, a pest or weed control at 31 g/ha ([4]; 31 g ai/ha) of 30% and a pest or weed control at 62 g/ha ([4]; 62 g ai/ha) of 65%. For the same compound, the pest or weed control at 125 g/ha ([4]; 125 g ai/ha) was 70%, the pest or weed control at 250 g/ha ([4]; 250 g ai/ha) was 70% and the pest or weed control at 31 g/ha ([5]; 31 g ai/ha) was 70%. It also gave a pest or weed control at 62 g/ha ([5]; 62 g ai/ha) of 90%, a pest or weed control at 125 g/ha ([5]; 125 g ai/ha) of 90% and a pest or weed control at 250 g/ha ([5]; 250 g ai/ha) of 95%. The melting point was 113 to 116 °C, the pest or weed control at 31 g/ha ([6]; 31 g ai/ha) was 0% and the pest or weed control at 62 g/ha ([6]; 62 g ai/ha) was 65%. The pest or weed control at 125 g/ha ([6]; 125 g ai/ha) was 95%, the pest or weed control at 31 g/ha ([7]; 31 g ai/ha) was 55% and the pest or weed control at 62 g/ha ([7]; 62 g ai/ha) was 85%. It also gave a pest or weed control at 125 g/ha ([7]; 125 g ai/ha) of 90%, a pest or weed control at 250 g/ha ([7]; 250 g ai/ha) of 95% and a pest or weed control at 31 g/ha ([8]; 31 g ai/ha) of 100%. For the same compound, the pest or weed control at 62 g/ha ([8]; 62 g ai/ha) was 100%, the pest or weed control at 125 g/ha ([8]; 125 g ai/ha) was 100% and the plant injury at 31 g/ha ([9]; 31 g ai/ha) was 0%. The plant injury at 62 g/ha ([9]; 62 g ai/ha) was 15%, the plant injury at 125 g/ha ([9]; 125 g ai/ha) was 20% and the plant injury at 250 g/ha ([9]; 250 g ai/ha) was 90%. The Corn plant response rating (crop injury, 0 = no effect, 100 = complete kill) at 31 g/ha (corn (Zea mays); 31 g ai/ha) was 10%, the Corn plant response rating (crop injury, 0 = no effect, 100 = complete kill) at 62 g/ha (corn (Zea mays); 62 g ai/ha) was 40% and the Corn plant response rating (crop injury, 0 = no effect, 100 = complete kill) at 125 g/ha (corn (Zea mays); 125 g ai/ha) was 80%. For the same compound, the pest or weed control at 31 g/ha ([10]; 31 g ai/ha) was 60%, the pest or weed control at 62 g/ha ([10]; 62 g ai/ha) was 95% and the pest or weed control at 125 g/ha ([10]; 125 g ai/ha) was 100%. It also gave a pest or weed control at 250 g/ha ([10]; 250 g ai/ha) of 100%, a pest or weed control at 31 g/ha ([11]; 31 g ai/ha) of 100% and a pest or weed control at 62 g/ha ([11]; 62 g ai/ha) of 100%. It also gave a pest or weed control at 125 g/ha ([11]; 125 g ai/ha) of 100%, a pest or weed control at 31 g/ha ([12]; 31 g ai/ha) of 10% and a pest or weed control at 62 g/ha ([12]; 62 g ai/ha) of 30%. The pest or weed control at 125 g/ha ([12]; 125 g ai/ha) was 70%, the pest or weed control at 31 g/ha ([13]; 31 g ai/ha) was 100% and the pest or weed control at 62 g/ha ([13]; 62 g ai/ha) was 100%. For the same compound, the pest or weed control at 125 g/ha ([13]; 125 g ai/ha) was 100%, the pest or weed control at 31 g/ha ([14]; 31 g ai/ha) was 70% and the pest or weed control at 62 g/ha ([14]; 62 g ai/ha) was 98%. For the same compound, the pest or weed control at 125 g/ha ([14]; 125 g ai/ha) was 100%, the pest or weed control at 250 g/ha ([14]; 250 g ai/ha) was 100% and the pest or weed control at 31 g/ha ([15]; 31 g ai/ha) was 75%. The pest or weed control at 62 g/ha ([15]; 62 g ai/ha) was 100%, the pest or weed control at 125 g/ha ([15]; 125 g ai/ha) was 100% and the pest or weed control at 31 g/ha ([16]; 31 g ai/ha) was 98%. It also gave a pest or weed control at 62 g/ha ([16]; 62 g ai/ha) of 100%, a pest or weed control at 125 g/ha ([16]; 125 g ai/ha) of 100% and a pest or weed control at 31 g/ha ([17]; 31 g ai/ha) of 0%. For the same compound, the pest or weed control at 62 g/ha ([17]; 62 g ai/ha) was 20%, the pest or weed control at 125 g/ha ([17]; 125 g ai/ha) was 60% and the pest or weed control at 31 g/ha ([18]; 31 g ai/ha) was 10%. It also gave a pest or weed control at 62 g/ha ([18]; 62 g ai/ha) of 60%, a pest or weed control at 125 g/ha ([18]; 125 g ai/ha) of 90% and a plant injury at 31 g/ha ([19]; 31 g ai/ha) of 85%. It also gave a plant injury at 62 g/ha ([19]; 62 g ai/ha) of 98%, a plant injury at 125 g/ha ([19]; 125 g ai/ha) of 100% and a plant injury at 250 g/ha ([19]; 250 g ai/ha) of 100%. It also gave a plant injury at 31 g/ha (soybean (Glycine max); 31 g ai/ha) of 60%, a plant injury at 62 g/ha (soybean (Glycine max); 62 g ai/ha) of 70% and a plant injury at 125 g/ha (soybean (Glycine max); 125 g ai/ha) of 90%. It also gave a plant injury at 250 g/ha (soybean (Glycine max); 250 g ai/ha) of 95%.
